# In US7504035B2, “Treatment of putrescrible cakes” (United Utilities PLC, priority 2005, dated 2009):
# What was measured:
# Format in all cases: cell-based
# E. coli [1] = assay: E. coli content of raw sewage sludge cake (25.6% DS) treated with urea; conditions: raw sewage sludge 25.6% DS
# Experimental: Samples of raw sewage sludge cake with mean solids content of 25.6% were treated with various amounts of urea. The E. coli content (cfu/g dry weight) of the samples was monitored over a period.
# E. coli [2] = assay: E. coli content of digested sludge cake (24.8% solids) treated with urea; conditions: digested sewage sludge 24.8% solids
# Experimental: Samples of digested sludge cake with mean solids content of 24.8% were treated with various amounts of urea. The E. coli content (cfu/g dry weight) of the samples was monitored over a period.
# pathogens in the cake = assay: Pathogen deactivation in sewage sludge cake (general statement); conditions: low concentration added to sewage sludge cake, particularly septic cake
structure (smiles),measurement,setting,value
NC(N)=O [urea],E. coli content,"E. coli [1]; 0.5% dose urea, day 0",1.36E+06 cfu/g dry weight
same,E. coli content,"E. coli [1]; 0.5% dose urea, day 1",7.58E+06 cfu/g dry weight
same,E. coli content,"E. coli [1]; 0.5% dose urea, day 8",1.32E+05 cfu/g dry weight
same,E. coli content,"E. coli [1]; 0.5% dose urea, day 14",1.18E+05 cfu/g dry weight
same,E. coli content,"E. coli [1]; 0.5% dose urea, day 22",4.55E+04 cfu/g dry weight
same,E. coli content,"E. coli [1]; 1.0% dose urea, day 0",1.39E+06 cfu/g dry weight
same,E. coli content,"E. coli [1]; 1.0% dose urea, day 1",6.15E+06 cfu/g dry weight
same,E. coli content,"E. coli [1]; 1.0% dose urea, day 8",3.25E+03 cfu/g dry weight
same,E. coli content,"E. coli [1]; 1.0% dose urea, day 14",9.58E+02 cfu/g dry weight
same,E. coli content,"E. coli [1]; 1.0% dose urea, day 22",3.35E+02 cfu/g dry weight
same,E. coli content,"E. coli [1]; 1.5% dose urea, day 0",1.23E+06 cfu/g dry weight
same,E. coli content,"E. coli [1]; 1.5% dose urea, day 1",1.30E+03 cfu/g dry weight
same,E. coli content,"E. coli [1]; 1.5% dose urea, day 8",9.03E+02 cfu/g dry weight
same,E. coli content,"E. coli [1]; 1.5% dose urea, day 14",2.09E+02 cfu/g dry weight
same,E. coli content,"E. coli [1]; 1.5% dose urea, day 22",1.00E+01 cfu/g dry weight
same,E. coli content,"E. coli [2]; 0.5% dose urea, day 0",4.67E+04 cfu/g dry weight
same,E. coli content,"E. coli [2]; 0.5% dose urea, day 1",1.86E+03 cfu/g dry weight
same,E. coli content,"E. coli [2]; 0.5% dose urea, day 4",1.21E+02 cfu/g dry weight
same,E. coli content,"E. coli [2]; 0.5% dose urea, day 7",1.94E+02 cfu/g dry weight
same,E. coli content,"E. coli [2]; 0.5% dose urea, day 14",3.90E+01 cfu/g dry weight
same,E. coli content,"E. coli [2]; 0.5% dose urea, day 50",5.40E+01 cfu/g dry weight
same,E. coli content,"E. coli [2]; 1.0% dose urea, day 0",1.79E+04 cfu/g dry weight
same,E. coli content,"E. coli [2]; 1.0% dose urea, day 1",6.97E+03 cfu/g dry weight
same,E. coli content,"E. coli [2]; 1.0% dose urea, day 4",7.90E+01 cfu/g dry weight
same,E. coli content,"E. coli [2]; 1.0% dose urea, day 7",7.90E+01 cfu/g dry weight
same,E. coli content,"E. coli [2]; 1.0% dose urea, day 14",1.34E+02 cfu/g dry weight
same,E. coli content,"E. coli [2]; 1.0% dose urea, day 50",1.85E+02 cfu/g dry weight
same,E. coli content,"E. coli [2]; 1.5% dose urea, day 0",1.19E+04 cfu/g dry weight
same,E. coli content,"E. coli [2]; 1.5% dose urea, day 1",4.57E+03 cfu/g dry weight
same,E. coli content,"E. coli [2]; 1.5% dose urea, day 4",3.70E+01 cfu/g dry weight
same,E. coli content,"E. coli [2]; 1.5% dose urea, day 7",1.54E+02 cfu/g dry weight
same,E. coli content,"E. coli [2]; 1.5% dose urea, day 14",7.90E+01 cfu/g dry weight
same,E. coli content,"E. coli [2]; 1.5% dose urea, day 50",4.10E+01 cfu/g dry weight
same,Pathogens in the cake,pathogens in the cake,quickly become deactivated
